Laboratory results: US9272993B2, “Naphthoquinone derivatives useful for prevention of amyloid deposits and treatment of diseases involving amyloidogenesis” (TECHNOLOGY INNOVATION MOMENTUM FUND (ISRAEL) LIMITED …, priority 2008, dated 2016)
Read-outs that look alike come from different tables or passages of the source.

What was measured:
Aβ1-40 fibrils = target: T1, Aβ1-40 fibrils (Homo sapiens, UniProt P05067); assay: Thioflavin T (ThT) fluorescence assay of fibril formation; assay type: biochemical
T1 construct: Amyloid β-peptide(1-42) and amyloid β-peptide(1-40) trifluoroacetate salts; purchased Bachem (Bubendorf, Switzerland); host or cells: synthetic peptide
Method: For executing the ThT florescence assay, Aβ1-40 was dissolved to a concentration of 10 μM in 10% DMSO in PBS (pH 7.4). Aβ was immediately mixed with or without different concentrations of SY-81 or SY-83 at a 1:1 ration to a final concentration of 5 μM. The samples were incubated at 37° C. and the fibrillogenesis rate was followed by thioflavin T (ThT) fluorescence assay (excitation at 450 nm, 2.5 nm slit, and emission at 480 nm, 5 nm slit), over a course of 11 days to two weeks. ThT was added to a 10-fold diluted sample and measured using a Jobin Yvon Horiba Fluoromax 3 fluorimeter.
Though there is a growing recognition that the early Aβ oligomer intermediates and not the fibrils are the most toxic amyloid forms in AD, this debate has not been completely resolved. […] This method provides quantitative information on amyloid fibrils growth. β-amyloid was allowed to form amyloid fibrils either in the presence of different concentrations of SY-83 (FIGS. 5A, C) or SY-81 (FIGS. 5B, D) or with no inhibitor (WT). The fibrillization process was followed for several days until a plateau state was reached. Fluorescence values were measured throughout.
An end point experiment was further conducted with various concentrations of SY-81 and SY-83 in order to determine IC50. An IC50 of 50 nM and 100 nM was measured for SY-81 and SY-83, respectively. […]

rat PC12 cell line = assay: MTT cell viability assay, cytotoxicity of soluble Aβ oligomers; assay type: cell-based; conditions: PC12 cells, 24 hours
Method: The cytotoxicity assay was performed with Rat PC12 cells (1.5×10^5 cells/mL) cultured in 96-well microplates (100 μL/well) and incubated overnight at 37° C. Samples with toxic oligomers from above were either dialyzed over night against PBS buffer or diluted with 9 volumes of an aqueous solution containing 33% methanol and 4% acetic acid, and incubated for 2 hours at 4° C. The samples were then centrifuged at 16,000 g for 40 minutes, the supernatant discarded and the pellet was resuspended in 5 mM NaH2PO4, 35 mM NaCl, pH 7.4. To each well we added 100 μL of 0.5 μM Aβ which formed toxic oligomers and prepared mixtures of inhibitors at various concentrations. Each experiment was repeated four times. Following incubation for 24 hours at 37° C., cell viability was evaluated using the MTT assay. Briefly, 20 μL of 5 mg/mL MTT dissolved in PBS was added to each well. […] Finally, color intensity was measured using an ELISA reader at 570 nm.
To further substantiate the inhibition induced by SY-81, it was tested whether SY-81 affects the toxicity of Aβ oligomers towards the rat PC12 cell line. Toxic oligomers were pre-incubated with different concentrations of SY-81 and toxicity was assessed using the MTT cell viability assay.

Aβ1-42 = target: T2, Aβ1-42 (Homo sapiens, UniProt P05067); assay: Fluorescence anisotropy (polarization) titration with Aβ1-42; assay type: binding
T2 construct: Amyloid β-peptide(1-42) and amyloid β-peptide(1-40) trifluoroacetate salts; purchased Bachem (Bubendorf, Switzerland); host or cells: synthetic peptide
Method: For the florescence anisotropy studies SY-81 or SY-83 was dissolved in DMSO to a concentration of 1 μM and sonicated for 5 min. The solution was immediately mixed with aliquots of an Aβ1-42 stock solution (20 μM) to varying final polypeptide concentrations. SY-81 and SY-83 polarization measurements were carried out using an ISS K2 fluorimeter. The solutions were excited at 280 nm and emission was monitored at 350 nm. For each single point, at least five measurements were collected and their average values were used for the calculation. All experiments were performed in PBS (pH 7.4).
Increasing amounts of Aβ were titrated into a solution of SY-83 or SY-81 and the anisotropy 15 was determined (FIG. 4A-B).

[1] = Locomotion (climbing) assay in Alzheimer's Drosophila model; assay type: in vivo, Drosophila melanogaster; conditions: medium with 0.75 mg/ml, control males lacking Aβ1-42 expression
Method: In vivo studies (fly maintenance) were performed with Drosophila melanogaster flies grown on a standard corneal-molasses medium and kept at 25° C. As Drosophila females can store sperm cells in their bodies, crosses were conducted using virgin females collected no longer than 8 hours after eclosion at 25° C. or 18 hours after eclosion at 18° C. Adult offspring (F1) from the crosses were collected up to 9 days after the beginning of their eclosion at 25° C. in order to avoid collection of offspring from the next generation (F2). […]
The locomotion (climbing) assay was carried out in fresh rearing vials, each containing 10 flies of a given class (four classes mentioned below). […] The percent of flies which climbed to the top of the test tube was then calculated over time. […] Data were analyzed using standard ANOVA statistical exams.
In order to assess the effect of SY-81 and SY-83 in the living organism, a Drosophila model of Alzheimer's was used, based on the work of Crowther et al. (ibid) who generated transgenic flies that express the human Aβ1-42 protein conditionally, using the UAS-Gal4 expression system. […] These defects included progressive decline of locomotion in aged flies (measured as ability to climb up), and marked shortening of life span. […]
Suppression of climbing defects was assessed as detailed below in flies genotype: Gal4-elav^c155 UAS-Aβ1-42. […]

56 KD Aβ species = assay: Western blot of soluble brain fractions (6E10 antibody); assay type: in vivo; conditions: 5XFAD mice, 1 mg intraperitoneally every other day for 4 months

T1 sequence (P05067 672-711 limits assumed): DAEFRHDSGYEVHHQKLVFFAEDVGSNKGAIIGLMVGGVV
T2 sequence (P05067 672-713 limits assumed): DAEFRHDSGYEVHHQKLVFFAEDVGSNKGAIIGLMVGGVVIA

With `O=C1C=C(NC(Cc2c[nH]c3ccccc23)C(=O)O)C(=O)c2ccccc21` (stereo not shown) [SY-81] the IC50 (Aβ1-40 fibrils; end point experiment, various concentrations, read-out: IC50 of fibril formation) was 50 nM, the “toxic effect of the compound on its own (cell viability)” value (rat PC12 cell line) was “no toxic effect” and the Kd (Aβ1-42; fluorescence anisotropy, PBS pH 7.4, read-out: affinity towards Aβ) was about 90 nM. For the same compound, the “climbing behavior of control males” value [1] was “No effect”.

For `O=C1C(Cl)=C(NC(Cc2c[nH]c3ccccc23)C(=O)O)C(=O)c2ccccc21` (stereo not shown) [SY-83], the IC50 (Aβ1-40 fibrils) was 100 nM, the Kd (Aβ1-42) was about 900 nM and the “reduction in 56 KD Aβ species in soluble brain fractions” value (56 KD Aβ species) was 91%.
